Here are results for three molecules from article PMC6761801 (ACS Omega, 2019).

Ends that are not written are not given here.

Test in all cases: MIC, broth microdilution
On the technique in general: In broth dilution the organism is exposed to a series of concentrations in liquid medium.

The subject of experiment [1] is Bacillus subtilis (KCTC 3068). The class given is cell-based. The conditions noted are these: B. subtilis, 2 × 10^6 CFU/mL.
A further experiment concerns S. aureus (KCTC 1621). The class given is cell-based, Staphylococcus aureus. The note with it: 2 × 10^6 CFU/mL.
Experiment [2] relates to Enterococcus faecalis (KCTC 2011). The class given is cell-based. The conditions noted are these: E. faecalis, 2 × 10^6 CFU/mL.
Experiment [3] concerns Staphylococcus epidermidis (KCTC 1917). The class given is cell-based. The conditions noted are these: S. epidermidis, 2 × 10^6 CFU/mL.
The next experiment concerns E. coli (KCTC 1682). The class given is cell-based, Escherichia coli. The conditions noted are these: 2 × 10^6 CFU/mL.
For experiment [4], the system named is Salmonella typhimurium (KCTC 1926). The class given is cell-based. The conditions noted are these: S. typhimurium, 2 × 10^6 CFU/mL.
Experiment [5] has as its system Pseudomonas aeruginosa (KCTC 1637). The class given is cell-based. The note with it: P. aeruginosa, 2 × 10^6 CFU/mL.
Experiment [6] concerns Proteus vulgaris (KCTC 2433). The class given is cell-based. The note with it: P. vulgaris, 2 × 10^6 CFU/mL.
Setting [7] is: in the presence of 16 μM R9 (+R9).

In the case of “RRRRRRRRRGGGGIGKWLHSAKKFGKAFVGEIMNS-NH2 [R9-magainin]”, the “antimicrobial activity (MIC)” value in experiment [1] (peptide alone (−R9)) was 2 to 4 µM; in the experiment on S. aureus (KCTC 1621) (peptide alone (−R9)) it was 8 µM; in experiment [2] (peptide alone (−R9)) it was 4 µM; in experiment [3] (peptide alone (−R9)), 4 to 8 µM; in the experiment with E. coli (KCTC 1682) (peptide alone (−R9)) it was 2 to 4 µM; in experiment [4] (peptide alone (−R9)), 1 to 2 µM. Moreover, the “antimicrobial activity (MIC)” value is 4 µM in experiment [5] (peptide alone (−R9)) and 4 to 8 µM in experiment [6] (peptide alone (−R9)).
Regarding `N=C(N)NCCC[C@H](NC(=O)[C@H](CCCNC(=N)N)NC(=O)[C@H](CCCNC(=N)N)NC(=O)[C@H](CCCNC(=N)N)NC(=O)[C@H](CCCNC(=N)N)NC(=O)[C@H](CCCNC(=N)N)NC(=O)[C@H](CCCNC(=N)N)NC(=O)[C@H](CCCNC(=N)N)NC(=O)[C@@H](N)CCCNC(=N)N)C(N)=O` [R9], the “antimicrobial activity (MIC)” value in experiment [1] (peptide alone (−R9)) was greater than 128 µM.
KWKKLLKKLLKLLKK-NH2 [M15]: the “antimicrobial activity (MIC)” value in experiment [1] (setting [7]) is 8–16/8–16 μM; in experiment [1] (peptide alone (−R9)), 8–16/8–16 μM; in the experiment on S. aureus (KCTC 1621) (setting [7]), 8/8 μM; with S. aureus (KCTC 1621) (peptide alone (−R9)), 8/8 μM; in experiment [2] (setting [7]), 8 µM; in experiment [2] (peptide alone (−R9)), 16 µM. In addition, the “antimicrobial activity (MIC)” value was 16 µM in experiment [3] (setting [7]); 16 to 32 µM in experiment [3] (peptide alone (−R9)); 16 µM in the experiment with E. coli (KCTC 1682) (setting [7]); 16 to 32 µM with E. coli (KCTC 1682) (peptide alone (−R9)); 32/32 μM in experiment [4] (setting [7]); 32/32 μM in experiment [4] (peptide alone (−R9)). In addition, the “antimicrobial activity (MIC)” value in experiment [5] (setting [7]), in experiment [5] (peptide alone (−R9)), in experiment [6] (setting [7]) and in experiment [6] (peptide alone (−R9)) was 32/32 μM throughout.
